Residue numbers refer to the chain shown, from its start. Entries after “also recorded” stand apart in the source; their conditions may differ. Like-named read-outs stand apart in the source and are kept apart here.
What was measured:
[1] = molecular target: T1, KcsA-Kv1.2 T-only chimera (Streptomyces lividans, UniProt P0A334, A54E/A57S/G53D/G56E/I60P/L59F/P55R/R52A/R64D/T61S/Y62I); assay: Phage-binding competition assay, KcsA-Kv1.2 T-only; design: species or system human Kv1.2 turret in Streptomyces lividans KcsA; settings: HgTx1-phage competition, KcsA-Kv1.2 T-only; value given in figure, sigmoidal fit to means of three replicates; read-out: IC50 (Fig. 7E)
T1 sequence (P0A334 1-160 R52A/G53D/A54E/P55R/G56E/A57S/L59F/I60P/T61S/Y62I/R64D): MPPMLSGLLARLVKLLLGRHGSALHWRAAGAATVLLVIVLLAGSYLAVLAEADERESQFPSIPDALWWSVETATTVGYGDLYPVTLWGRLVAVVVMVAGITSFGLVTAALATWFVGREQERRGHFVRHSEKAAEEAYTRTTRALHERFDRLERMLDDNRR
Protocol: (§1) Phage stock solutions were diluted to working concentration with phage resuspension buffer supplemented with 2 mM DDM. For protein immobilization, the following amounts were used in a final volume of 50 μl/well: wt KcsA, 0.1 μg; KcsA-Kv1.1 T-only, 0.005 μg; KcsA-Kv1.1 T+F, 0.02 μg; KcsA-Kv1.2 T-only, 0.01 μg; KcsA-Kv1.2 T+F, 0.1 μg; KcsA-Kv1.3 T-only, 0.01 μg; and KcsA-Kv1.3 T+F, 0.1 μg. Protein samples were diluted in 50 μl of storage buffer (20 mM Tris pH8.0, 300 mM KCl, 2 mM DDM) and were added to the designated wells of a Pierce Clear, 96-Well Nickel Coated Plate (15442, Thermo Fisher Scientific), then incubated for 1 h at room temperature on a horizontal shaker at 130 rpm. The plate was blocked for 1 h at room temperature with 180 μl/well TBS-BSA supplemented with 1 mM DDM. Following blocking, the wells were washed 4× with washing buffer (300 μl TBS-Tween, 0.1% v/v) using a Wellwash Versa microplate washer (Thermo Fisher Scientific); then 50 μl phage solution (in TBS-BSA-Tween, 0.1% v/v, 2 mM DDM) at determined phage concentration was added to the wells and incubated for 1 h at room temperature on a horizontal shaker. The plate was washed 4× with washing buffer, then 50 μl anti-M13 IgG HRP (MA5-36125, Invitrogen) diluted to 1:2500 in TBS-Tween (0.1% v/v) was added to the wells and incubated for 1 h at room temperature. The plate was washed again 4× with 300 μl/well washing buffer. Finally, 50 μl/well 1-Step Ultra TMB-ELISA solution (34028, Thermo Fisher Scientific) was added to the wells, and the developing signal was stopped with 50 μl 1M HCl after 5 to 10 min. The light absorbance signal was read at 450 nm with Byonoy absorbance 96 plate reader (Byonoy GmbH).
(§2) For protein immobilization, the following amounts were used in a final volume of 50 μl/well: KcsA-Kv1.1 T-only, 0.005 μg; KcsA-Kv1.1 T+F, 0.01 μg; KcsA-Kv1.2 T-only, 0.025 μg; KcsA-Kv1.2 T+F, 0.0125 μg; KcsA-Kv1.3 T-only, 0.01 μg; and KcsA-Kv1.3 T+F, 0.1 μg. Protein samples were diluted in storage buffer. Binding of given concentrations of relevant ligand-displaying phages quantified by light absorbance ([…]) were investigated in a similar manner as in phage ELISA-binding assay, while different concentrations of competing toxin test substances were applied simultaneously. The results were converted to percent inhibitions (percent displacement) of the indicator phage binding, and relative affinities of the tested toxins were assessed by plotting percent displacements against log concentrations and determining half maximal inhibitory concentrations (IC50) by sigmoidal curve fitting using “Sigmoidal dose-response (variable slope) with least squares method” algorithm in GraphPad Prism 8 using the following equation: Y=Bottom+Top−Bottom/1+10^(LogEC50−×)⋅HillSlope

[2] = molecular target: T2, KcsA-Kv1.2 T-only chimera (Streptomyces lividans, UniProt P0A334, R52A/G53D/A54E/P55R/G56E/A57S/L59F/I60P/T61S/Y62I/R64D); assay: Phage-binding competition assay, KcsA-Kv1.2 T-only; design: species or system human Kv1.2 turret in Streptomyces lividans KcsA; settings: for binding to KcsA-Kv1.2 T-only, in words: HgTx1-phage competition, Fig. 7E (ligand-binding pattern); for Rank, T-only chimera (Kv1.2): rank by competition IC50 among MTX, ShK, KTX1
T2 sequence (P0A334 1-160 R52A/G53D/A54E/P55R/G56E/A57S/L59F/I60P/T61S/Y62I/R64D): T1 sequence (P0A334 1-160 R52A/G53D/A54E/P55R/G56E/A57S/L59F/I60P/T61S/Y62I/R64D)
Protocol: as §1, §2

[3] = molecular target: T3, KcsA-Kv1.3 T-only chimera (Streptomyces lividans, UniProt P0A334, A54D/A57S/G53D/G56T/I60S/L59F/Q58G/R52A/R64D/T61S/Y62I); assay: Phage-binding competition assay, KcsA-Kv1.3 T-only; design: species or system human Kv1.3 turret in Streptomyces lividans KcsA
T3 construct: made in house; host or cells: E. coli XL1-Blue (pQE30)
T3 sequence (P0A334 1-160 R52A/G53D/A54D/G56T/A57S/Q58G/L59F/I60S/T61S/Y62I/R64D): T1 sequence (P0A334 1-160 R52A/G53D/A54E/P55R/G56E/A57S/L59F/I60P/T61S/Y62I/R64D) with E54D, R55P, E56T, Q58G, P60S
Protocol: as §1, §2

KcsA-Kv1.1 T+F chimera [4] = molecular target: T4, KcsA-Kv1.1 T+F chimera (Streptomyces lividans, UniProt P0A334, A54E/A57S/G53E/G56E/I60S/L59F/L81M/P55A/Q58H/R52A/R64D/T61S/Y62I); assay: Phage-binding competition assay, KcsA-Kv1.1 T+F; design: species or system human Kv1.1 turret and filter in Streptomyces lividans KcsA
T4 sequence (P0A334 1-160 R52A/G53E/A54E/P55A/G56E/A57S/Q58H/L59F/I60S/T61S/Y62I/R64D/L81M): T1 sequence (P0A334 1-160 R52A/G53D/A54E/P55R/G56E/A57S/L59F/I60P/T61S/Y62I/R64D) with D53E, R55A, Q58H, P60S, L81M
Protocol: as §1, §2

KcsA-Kv1.1 T+F chimera [5] = molecular target: T5, KcsA-Kv1.1 T+F chimera (Streptomyces lividans, UniProt P0A334, R52A/G53E/A54E/P55A/G56E/A57S/Q58H/L59F/I60S/T61S/Y62I/R64D/L81M); assay: Phage-binding competition assay, KcsA-Kv1.1 T+F; design: species or system human Kv1.1 turret and filter in Streptomyces lividans KcsA; settings: for competition binding to KcsA-Kv1.1 T+F, in words: ShK-phage competition, native peptide, Fig. 8F (ligand-binding pattern); for Rank, T+F chimera (Kv1.1): rank by competition IC50 among ShK, KTX1, MTX
T5 sequence (P0A334 1-160 R52A/G53E/A54E/P55A/G56E/A57S/Q58H/L59F/I60S/T61S/Y62I/R64D/L81M): T1 sequence (P0A334 1-160 R52A/G53D/A54E/P55R/G56E/A57S/L59F/I60P/T61S/Y62I/R64D) with D53E, R55A, Q58H, P60S, L81M
Protocol: as §1, §2

Row | Structure (SMILES) | IC50 [1] [nM] | binding to KcsA-Kv1.2 T-only, in words [2] | Rank, T-only chimera (Kv1.2) [2] | IC50 ([3]; HgTx1-phage competition, T-only KcsA-Kv1.3, value given in figure, sigmoidal fit to means of three replicates, read-out: IC50 (Fig. 6E)) [nM] | Rank, T-only chimera (Kv1.3) ([3]; rank by competition IC50 among Vm24, HgTx1, KTX1) | IC50 (KcsA-Kv1.1 T+F chimera [4]; displacement of ShK-phage, KcsA-Kv1.1 T+F 0.01 μg/well on nickel-coated plate, mean ± SD (n = 3), NQ = not quantifiable, read-out: IC50, T+F chimera (Kv1.1)) [nM] | competition binding to KcsA-Kv1.1 T+F, in words (KcsA-Kv1.1 T+F chimera [5]) | Rank, T+F chimera (Kv1.1) (KcsA-Kv1.1 T+F chimera [5]) | IC50 (KcsA-Kv1.1 T+F chimera [4]; ShK-phage competition, T+F KcsA-Kv1.1, value given in figure, sigmoidal fit to means of three replicates, read-out: IC50 (Fig. 8F)) [nM]
1 | CC[C@H](C)[C@H](NC(=O)[C@H](CCC(=O)O)NC(=O)[C@@H](NC(=O)CN)C(C)C)C(=O)N[C@@H](CC(N)=O)C(=O)N[C@H](C(=O)N[C@@H](CCCCN)C(=O)N[C@H]1CSSC[C@@H]2NC(=O)[C@H](CCCCN)NC(=O)CNC(=O)[C@H](Cc3ccccc3)NC(=O)[C@H](CCCNC(=N)N)NC(=O)[C@H](CCSC)NC(=O)CNC(=O)[C@H](C)NC(=O)[C@H](CC(=O)O)NC(=O)[C@H](CCCCN)NC(=O)[C@@H]3CSSC[C@@H](C(=O)N[C@H](C(=O)N4CCC[C@H]4C(=O)N[C@@H](CCCCN)C(=O)O)[C@@H](C)O)NC(=O)[C@H](Cc4c[nH]cn4)NC(=O)[C@H](CSSC[C@H](NC(=O)[C@H](CCC(N)=O)NC(=O)[C@@H]4CCCN4C(=O)[C@H](CO)NC(=O)CNC(=O)[C@H](CO)NC1=O)C(=O)N[C@@H](CC(C)C)C(=O)N[C@@H](CCCCN)C(=O)N1CCC[C@H]1C(=O)N3)NC(=O)[C@H](CCCCN)NC(=O)[C@H](CCCNC(=N)N)NC(=O)[C@H](CC(N)=O)NC(=O)[C@H](CCSC)NC2=O)C(C)C [KTX1, Kaliotoxin-1] | 0.184 | inconsistent with their published channel blocking potencies; also recorded: ShK > KTX1 > MTX | 2 | 0.416 | 1 | 1.49 | ShK > KTX1 > MTX | 2 | –
2 | CC[C@H](C)[C@@H]1NC(=O)[C@@H](NC(=O)[C@H](CO)NC(=O)[C@@H](N)CCCNC(=N)N)CSSC[C@@H](C(=O)O)NC(=O)[C@H]([C@@H](C)O)NC(=O)CNC(=O)[C@@H]2CSSC[C@@H]3NC(=O)[C@H](CCC(N)=O)NC(=O)[C@H](Cc4ccccc4)NC(=O)[C@H](C)NC(=O)[C@H]([C@@H](C)O)NC(=O)[C@H](CSSC[C@H](NC(=O)[C@H](Cc4ccccc4)NC(=O)[C@H](CO)NC(=O)[C@H](CC(C)C)NC(=O)[C@H](CCCNC(=N)N)NC(=O)[C@H](Cc4ccc(O)cc4)NC(=O)[C@H](CCCCN)NC(=O)[C@H](CCSC)NC(=O)[C@H](CO)NC(=O)[C@H](Cc4c[nH]cn4)NC(=O)[C@H](CCCCN)NC3=O)C(=O)N[C@@H](CCCNC(=N)N)C(=O)N[C@@H](CCCCN)C(=O)N[C@@H]([C@@H](C)O)C(=O)N2)NC(=O)[C@H](CCCNC(=N)N)NC(=O)[C@H](CO)NC(=O)[C@H](CCCCN)NC(=O)[C@@H]2CCCN2C(=O)[C@H]([C@@H](C)CC)NC(=O)[C@H]([C@@H](C)O)NC(=O)[C@H](CC(=O)O)NC1=O [ShK, Stichodactyla toxin] | 0.0701 | inconsistent with their published channel blocking potencies; also recorded: ShK > KTX1 > MTX | 1 | – | – | – | ShK > KTX1 > MTX | 1 | 0.271

Reference: publication PMC11002876, “KcsA-Kv1.x chimeras with complete ligand-binding sites provide improved predictivity for screening selective Kv1.x blockers” (The Journal of Biological Chemistry, 2024)
